One test concerns the target T1, CDK4/cyclin D3 (Homo sapiens, UniProt P11802).
T1 construct: purchased Carna Biosciences, Inc. QS S Assist CDK4/Cyclin D3_FP Kit
The experiment in a line: Human CDK4/cyclin D3 inhibitory activity (QS S Assist CDK4/Cyclin D3_FP Kit, IMAP fluorescent polarization). In kind it is biochemical. The note with it: read-out: CDK4 Activity symbol. As to the method:
Human CDK4/Cyclin D3 Inhibitory Activity
Each compound was analyzed for CDK4/cyclin D3 inhibitory activity with an assay kit (QS S Assist CDK4/Cyclin D3_FP Kit, available from Carna Biosciences, Inc.). This assay kit determines kinase activity on the basis of the IMAP technology by Molecular Devices. Specifically, the kinase activity is determined through quantification of a variation in fluorescent polarization caused by binding of a kinase-phosphorylated fluorescent substance to an IMAP-binding reagent.
Each solution was prepared with the 10× assay buffer attached to the kit or a separately prepared assay buffer having the same composition as the assay buffer attached to the kit. An assay buffer was prepared by 10-fold dilution of the 10× assay buffer with distilled water. The assay buffer contains 20 mM HEPES (pH 7.4), 0.01% Tween20, and 2 mM dithiothreitol. A test compound solution was prepared by dilution of the test compound with dimethyl sulfoxide (DMSO) to a concentration 100 times higher than the final concentration and then 25-fold dilution with the assay buffer to a concentration four times higher than the final concentration. An ATP/substrate/Metal solution was prepared by five-fold dilution of the 5×ATP/substrate/Metal solution attached to the kit with the assay buffer. An enzyme solution was prepared by dilution of the CDK4/cyclin D3 attached to the kit with the assay buffer to a concentration twice higher than the final concentration (final concentration of CDK4/cyclin D3: 12.5 to 25 ng/well). A detection reagent was prepared by five-fold dilution of each of 5×IMAP-binding buffer A and 5×IMAP-binding buffer B with distilled water, mixing of IMAP-binding buffer A with IMAP-binding buffer B at a ratio of 85:15, and 400-fold dilution of the IMAP-binding reagent with the mixed buffer.
(§1) The test compound solution (5 μL/well) and the ATP/substrate/Metal solution (5 μL/well) were added to a 384-well plate, and the enzyme solution or the assay buffer (10 μL/well) was added to the plate (total amount of the reaction mixture: 20 μL/well) for initiation of enzymatic reaction. […] The reaction was performed at room temperature for 45 minutes, and the detection reagent (60 μL/well) was then added to the plate, followed by further reaction for 30 minutes at room temperature under light shielding conditions. Subsequently, fluorescent polarization was determined with a microplate reader at an excitation wavelength of 485 nm and an emission wavelength of 535 nm.
The percent inhibition of enzyme activity was calculated for each test compound (note: enzyme activity=100% in the case of addition of the enzyme solution and addition of DMSO instead of the test compound solution, whereas enzyme activity […] in the case of addition of the assay buffer instead of the enzyme solution, and addition of DMSO instead of the test compound solution). The percent inhibition of enzyme activity was fitted to a dose-response curve, to determine a 50% inhibitory concentration against CDK4/cyclin D3.
In each table, “+++” corresponds to IC50<10 nM. “++” 10 nM […] IC50<100 nM, and “+” 100 nM≤IC50.

For a further test, the target named is T2, CDK2/cyclin A2 (Homo sapiens, UniProt P24941).
T2 construct: purchased Carna Biosciences, Inc. QS S Assist CDK2/Cyclin A2_FP Kit
The experiment in a line: Human CDK2/cyclin A2 inhibitory activity (QS S Assist CDK2/Cyclin A2_FP Kit, IMAP fluorescent polarization). Type of test: biochemical. To be noted: read-out: CDK2 Activity symbol. As for the experimental part: Human CDK2/Cyclin A2 Inhibitory Activity
Each compound was analyzed for CDK2/cyclin A2 inhibitory activity with an assay kit (QS S Assist CDK2/Cyclin A2_FP Kit, available from Carna Biosciences, Inc.). This assay kit determines kinase activity on the basis of the IMAP technology by Molecular Devices. Specifically, the kinase activity is determined through quantification of a variation in fluorescent polarization caused by binding of a kinase-phosphorylated fluorescent substance to an IMAP-binding reagent.
An assay buffer was prepared by 10-fold dilution of the 10× assay buffer attached to the kit with distilled water, and each solution was prepared with the assay buffer. The assay buffer contained 20 mM HEPES (pH 7.4), 0.01% Tween 20, and 2 mM dithiothreitol. A test compound solution was prepared by dilution of the test compound with dimethyl sulfoxide (DMSO) to a concentration 100 times higher than the final concentration and then 25-fold dilution with the assay buffer to a concentration four times higher than the final concentration. An ATP/substrate/Metal solution was prepared by five-fold dilution of the 5×ATP/substrate/Metal solution attached to the kit with the assay buffer. An enzyme solution was prepared by dilution of the CDK2/cyclin A2 attached to the kit with the assay buffer to a concentration twice higher than the final concentration (final concentration of CDK2/cyclin A2: 2.5 ng/well). A detection reagent was prepared by five-fold dilution of 5×IMAP-binding buffer A with distilled water and 400-fold dilution of the IMAP-binding reagent with the diluted buffer.
as §1, with “60” for “45”
The percent inhibition of enzyme activity was calculated for each test compound (note: enzyme activity=100% in the case of addition of the enzyme solution and addition of DMSO instead of the test compound solution, whereas enzyme activity […] in the case of addition of the assay buffer instead of the enzyme solution and addition of DMSO instead of the test compound solution). The percent inhibition of enzyme activity was fitted to a dose-response curve, to determine a 50% inhibitory concentration against CDK2/cyclin A2.
In each table, “+++” corresponds to IC50<10 nM, “++” 10 nM≤IC50<100 nM, and “+” 100 nM≤IC50.

T1 sequence (P11802 whole entry): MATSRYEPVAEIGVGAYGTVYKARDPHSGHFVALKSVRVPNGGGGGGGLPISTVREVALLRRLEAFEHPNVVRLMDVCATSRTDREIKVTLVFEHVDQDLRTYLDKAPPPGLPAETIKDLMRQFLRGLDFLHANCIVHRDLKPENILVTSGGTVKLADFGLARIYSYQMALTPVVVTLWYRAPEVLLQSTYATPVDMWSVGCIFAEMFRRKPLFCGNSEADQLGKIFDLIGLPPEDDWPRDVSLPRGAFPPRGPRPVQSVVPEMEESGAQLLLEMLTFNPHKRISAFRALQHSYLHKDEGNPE
T1 sequence (P30281 whole entry partner): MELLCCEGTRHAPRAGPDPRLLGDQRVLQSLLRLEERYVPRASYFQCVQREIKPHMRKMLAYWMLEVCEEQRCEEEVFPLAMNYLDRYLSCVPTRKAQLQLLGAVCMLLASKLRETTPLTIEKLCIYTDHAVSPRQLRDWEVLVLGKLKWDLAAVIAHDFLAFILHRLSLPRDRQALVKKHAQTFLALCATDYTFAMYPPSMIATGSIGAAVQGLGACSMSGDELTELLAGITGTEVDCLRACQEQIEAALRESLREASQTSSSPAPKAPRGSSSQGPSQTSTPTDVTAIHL

With `CN1CCN(c2ccc(Nc3ncc4cc(CO)nc(N5CCOCC5)c4n3)nc2)CC1` [Compound 1], the IC50 was less than 10 nM at CDK4/cyclin D3 and not below 100 nM at CDK2/cyclin A2.
The matching figures for `CN1CCN(c2ccc(Nc3ncc4cc(CO)nc(N5CCCCC5)c4n3)nc2)CC1` [Compound 2]: less than 10 nM and not below 100 nM.
The matching figures for `CN1CCN(c2ccc(Nc3ncc4cc(CO)nc(N5CCCCC5=O)c4n3)nc2)CC1` [Compound 3]: not below 100 nM and not below 100 nM.
The matching figures for `CN1CCN(c2ccc(Nc3ncc4cc(C(F)F)nc(N5CCOCC5)c4n3)nc2)CC1` [Compound 4]: 10 to 100 nM and not below 100 nM.
As for `CN1CCN(c2ccc(Nc3ncc4cc(CO)nc(C5CCCCC5)c4n3)nc2)CC1` [Compound 5], the IC50 at CDK4/cyclin D3 is less than 10 nM; at CDK2/cyclin A2, not below 100 nM.
Take `CN1CCN(c2ccc(Nc3ncc4cc(CO)nc(-c5ccccc5)c4n3)nc2)CC1` [Compound 6]: the IC50 is less than 10 nM on CDK4/cyclin D3 and not below 100 nM on CDK2/cyclin A2.
The matching figures for `OCc1cc2cnc(Nc3ccc(N4CCNCC4)cn3)nc2c(N2CCOCC2)n1` [Compound 7]: less than 10 nM and not below 100 nM.
In the case of `FC(F)c1cc2cnc(Nc3ccc(N4CCNCC4)cn3)nc2c(N2CCOCC2)n1` [Compound 8], the values for the IC50 on CDK4/cyclin D3 and at CDK2/cyclin A2 were 10 to 100 nM and not below 100 nM, respectively.
With `OCc1cc2cnc(Nc3ccc(N4CCNCC4)cn3)nc2c(N2CCCCC2)n1` [Compound 9], on CDK4/cyclin D3, the IC50 is less than 10 nM.
Same read-out and setting: with `OCc1cc2cnc(Nc3ccc(N4CCNCC4)cn3)nc2c(-c2ccccc2)n1` [Compound 10] the figure was 10 to 100 nM; with `FC(F)c1cc2cnc(Nc3ccc(N4CCNCC4)cn3)nc2c(N2CCCCC2)n1` [Compound 11], less than 10 nM; with `FC(F)c1cc2cnc(Nc3ccc(N4CCNCC4)cn3)nc2c(-c2ccccc2)n1` [Compound 12], less than 10 nM.
Same read-out and setting: with `CN1CCN(c2ccc(Nc3ncc4cc(C(F)F)nc(N5CCCCC5)c4n3)nc2)CC1` [Compound 13] the figure was less than 10 nM.
Still for that read-out and setting: the value for `Cc1ccc(-c2nc(CO)cc3cnc(Nc4ccc(N5CCNCC5)cn4)nc23)cc1` [Compound 14] was less than 10 nM; that for `Cc1ccccc1-c1nc(CO)cc2cnc(Nc3ccc(N4CCNCC4)cn3)nc12` [Compound 15] was 10 to 100 nM.
Consider `OCc1cc2cnc(Nc3ccc(N4CCNCC4)cn3)nc2c(-c2ccsc2)n1` [Compound 16], for which the IC50 at CDK4/cyclin D3 is less than 10 nM.
Consider `OCc1cc2cnc(Nc3ccc(N4CCNCC4)cn3)nc2c(-c2ccoc2)n1` [Compound 17], for which the IC50 on CDK4/cyclin D3 is 10 to 100 nM.
With `Cc1ccc(-c2nc(CO)cc3cnc(Nc4ccc(N5CCN(C)CC5)cn4)nc23)cc1` [Compound 18], the IC50 at CDK4/cyclin D3 was less than 10 nM.
Same read-out and setting: with `Cc1ccccc1-c1nc(CO)cc2cnc(Nc3ccc(N4CCN(C)CC4)cn3)nc12` [Compound 19] the figure was less than 10 nM.
The same measure, in the same setting: with `CN1CCN(c2ccc(Nc3ncc4cc(CO)nc(-c5ccsc5)c4n3)nc2)CC1` [Compound 20] the figure was less than 10 nM.
Turning to `CN1CCN(c2ccc(Nc3ncc4cc(CO)nc(-c5ccoc5)c4n3)nc2)CC1` [Compound 21], the IC50 on CDK4/cyclin D3 lay in the range of 10 to 100 nM.
Same read-out and setting: with `CN1CCN(c2ccc(Nc3ncc4cc(CO)nc(C5=CCCCC5)c4n3)nc2)CC1` [Compound 22] the figure was less than 10 nM; with `O=C(O)c1cc2cnc(Nc3ccc(N4CCNCC4)cn3)nc2c(N2CCCCC2)n1` [Compound 23], not below 100 nM.
Regarding `CC(O)c1cc2cnc(Nc3ccc(N4CCNCC4)cn3)nc2c(N2CCCCC2)n1` (stereo not drawn) [Compound 24], the IC50 at CDK4/cyclin D3 is less than 10 nM; at CDK2/cyclin A2, not below 100 nM.
For `COC(=O)c1cc2cnc(Nc3ccc(N4CCNCC4)cn3)nc2c(N2CCCCC2)n1` [Compound 25], in that order: 10 to 100 nM and not below 100 nM.
For `CC(=O)c1cc2cnc(Nc3ccc(N4CCNCC4)cn3)nc2c(N2CCCCC2)n1` [Compound 26], in that order: 10 to 100 nM and not below 100 nM.
As for `CN(C)C(=O)c1cc2cnc(Nc3ccc(N4CCNCC4)cn3)nc2c(N2CCCCC2)n1` [Compound 27], the results for the IC50 at CDK4/cyclin D3 and on CDK2/cyclin A2 were 10 to 100 nM and not below 100 nM, respectively.
With `NC(=O)c1cc2cnc(Nc3ccc(N4CCNCC4)cn3)nc2c(N2CCCCC2)n1` [Compound 28], the IC50 at CDK4/cyclin D3 was 10 to 100 nM; at CDK2/cyclin A2, not below 100 nM.
`CNC(=O)c1cc2cnc(Nc3ccc(N4CCNCC4)cn3)nc2c(N2CCCCC2)n1` [Compound 29]: the IC50 on CDK4/cyclin D3 was 10 to 100 nM; at CDK2/cyclin A2, not below 100 nM.
Take `Cc1ccccc1-c1nc(C(F)F)cc2cnc(Nc3ccc(N4CCNCC4)cn3)nc12` [Compound 30]: the IC50 on CDK4/cyclin D3 was less than 10 nM; at CDK2/cyclin A2 it was not below 100 nM.
The matching figures for `COCc1cc2cnc(Nc3ccc(N4CCNCC4)cn3)nc2c(N2CCOCC2)n1` [Compound 32]: 10 to 100 nM and not below 100 nM.
As to `Cc1c(CO)nc(N2CCOCC2)c2nc(Nc3ccc(N4CCNCC4)cn3)ncc12` [Compound 33], the IC50 is less than 10 nM on CDK4/cyclin D3 and not below 100 nM at CDK2/cyclin A2.
For `CCC(O)c1cc2cnc(Nc3ccc(N4CCNCC4)cn3)nc2c(N2CCOCC2)n1` (stereo not drawn) [Compound 34], in that order: 10 to 100 nM and not below 100 nM.
The matching figures for `OC(c1cc2cnc(Nc3ccc(N4CCNCC4)cn3)nc2c(N2CCOCC2)n1)C(F)(F)F` (stereo not drawn) [Compound 35, 2,2,2-trifluoro-1-(8-morpholino-2-((5-(piperazin-1-yl)pyridin-2-yl)amino)pyrido[3,4-d]pyrimidin-6-yl)ethanol]: 10 to 100 nM and not below 100 nM.
The matching figures for `CC(F)(F)c1cc2cnc(Nc3ccc(N4CCNCC4)cn3)nc2c(N2CCOCC2)n1` [Compound 36]: not below 100 nM and not below 100 nM.
Turning to `COC(C)c1cc2cnc(Nc3ccc(CN4CCNCC4)cn3)nc2c(N2CCCCC2)n1` (stereo not drawn) [Compound 43], the IC50 at CDK4/cyclin D3 is less than 10 nM.
The same measure, in the same setting: with `COC(C)c1cc2cnc(Nc3ccc(CN4CCNCC4)cn3)nc2c(N2CCC3CCNC3C2)n1` (stereo not drawn) [Compound 44] the figure was less than 10 nM; with `COC(C)c1cc2cnc(Nc3ccc(CN4CCNCC4)cn3)nc2c(N2CCC(CO)CC2)n1` (stereo not drawn) [Compound 45], less than 10 nM.
On the same count and under the same terms, with `COCC1CCN(c2nc(C(C)OC)cc3cnc(Nc4ccc(CN5CCNCC5)cn4)nc23)CC1` (stereo not drawn) [Compound 46] the figure was less than 10 nM; with `CC(O)c1cc2cnc(Nc3ccc(CN4CCN(C)CC4)cn3)nc2c(N2CCOCC2C)n1` (stereo not drawn) [Compound 291], less than 10 nM.

The values are drawn from patent publication US11084814B2, “Pyrido[3, 4-d]pyrimidine derivative and pharmaceutically acceptable salt thereof” (Teijin Pharma Limited, priority 2016, dated 2021).
